This is an account of results in EP0323737A1, “4-Aralkyl-5-substituted-1,2,4-triazole-5-thiols” (SMITHKLINE BECKMAN CORPORATION, priority 1987, dated 1989).

The subject of data set [1] is spontaneously hypertensive rats. Put plainly: mean arterial blood pressure in spontaneously hypertensive rats after oral dosing. The note with it: 50 mg/kg orally, compared to vehicle-treated controls, approximate. Format: in vivo. How it is done:
Further, spontaneously hypertensive rats were treated with a suspension or solution of 3-mercapto-4-benzyl-5-n- heptyl-1,2,4-triazole at a dose of 50 mg/kg orally, and mean arterial blood pressure was monitored for 260 minutes using indwelling cannulae in the tail arteries. […] Maximal blood pressure reduction was approximately 10 to 35 mm Hg.

For data set [2] the following is noted: Teresawa et al., Japan Cir. J. 35, 339 (1971); cited from earlier work.

`CCCCCCCc1nnc(S)n1Cc1ccccc1` [Example 35, 3-Mercapto-4-benzyl-5-n-heptyl-1,2,4-triazole]: the “time after treatment to significant blood pressure reductions” value in data set [1] is at most 30 min.
For the compound `CCCCc1ccc(C(=O)O)nc1` [fusaric acid], the toxic effect result in data set [2] is “hepatotoxic”.
